Reference: patent US12006373B1, “Identification and evaluation of novel peptide ligands specific to human CD3 epsilon” (Board of Trustees of the University of Alabama, for and on …, priority 2020, dated 2024)

Tests used:
[1] = biological target: T1, CD3ε expressed on Jurkat cells (Homo sapiens, UniProt P07766); assay: Binding assay of peptide tetramers on Jurkat cells by flow cytometry; details: for Kd: peptide tetramer on Alexa Fluor 488 streptavidin, CD3ε-expressing Jurkat cells, read-out: affinity (Kd); for binding of peptide tetramers to Jurkat cells: varying tetramer concentrations, 30 minutes on ice
T1 construct: against CD3ε expressed on Jurkat cells; host or cells: Jurkat T cells (E6-1)
T1 sequence (P07766 23-207): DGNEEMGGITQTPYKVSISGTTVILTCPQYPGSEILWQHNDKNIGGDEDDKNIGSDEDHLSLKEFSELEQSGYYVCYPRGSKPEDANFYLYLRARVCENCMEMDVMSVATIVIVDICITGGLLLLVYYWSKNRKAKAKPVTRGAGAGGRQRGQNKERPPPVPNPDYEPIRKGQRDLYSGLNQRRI
T1 sequence (P09693 23-182 partner): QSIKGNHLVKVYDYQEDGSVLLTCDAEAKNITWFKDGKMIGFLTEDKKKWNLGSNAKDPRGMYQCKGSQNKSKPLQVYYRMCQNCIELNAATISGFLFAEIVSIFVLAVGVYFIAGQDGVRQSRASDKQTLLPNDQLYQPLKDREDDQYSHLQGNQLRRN
T1 sequence (P04234 22-171 partner): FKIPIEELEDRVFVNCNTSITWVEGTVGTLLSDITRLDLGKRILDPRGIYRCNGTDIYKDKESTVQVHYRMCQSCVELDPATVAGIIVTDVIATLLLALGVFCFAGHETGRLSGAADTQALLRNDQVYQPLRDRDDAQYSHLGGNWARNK
T1 sequence (P20963 22-164 partner): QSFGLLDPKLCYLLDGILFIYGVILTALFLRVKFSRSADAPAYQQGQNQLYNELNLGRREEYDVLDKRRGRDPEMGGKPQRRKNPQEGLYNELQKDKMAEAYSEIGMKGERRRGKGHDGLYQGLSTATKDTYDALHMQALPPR
T1 sequence (P01848 whole entry partner): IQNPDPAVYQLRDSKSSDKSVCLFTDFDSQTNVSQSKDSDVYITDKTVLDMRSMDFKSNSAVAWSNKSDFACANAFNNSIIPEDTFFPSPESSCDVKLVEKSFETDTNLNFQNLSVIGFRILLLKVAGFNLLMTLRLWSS
T1 sequence (P01850 whole entry partner): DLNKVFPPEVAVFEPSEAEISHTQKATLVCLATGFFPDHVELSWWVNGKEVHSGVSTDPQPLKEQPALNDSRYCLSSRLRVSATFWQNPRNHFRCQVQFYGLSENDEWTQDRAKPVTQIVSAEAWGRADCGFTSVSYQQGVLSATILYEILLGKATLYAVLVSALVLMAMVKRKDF
Description: The results were analyzed using FlowJo software.

[2] = test system: 2PK3 mouse B lymphoma cells; details: varying tetramer concentrations; cells lack TCR-CD3
[3] = biological target: T2, human recombinant CD3ε protein (Homo sapiens, UniProt P07766); assay: Biopanning of Ph.D.-7 phage display peptide library, sequencing of plaques; details: after the 5th round of biopanning, 18 out of 20 plaques; phage clone displaying the sequence
T2 construct: purchased Sino Biological
T2 sequence (P07766 23-207): as the sequence (P07766 23-207) above
Description: 1.2 Biopanning: Screening of the Ph.D.-7 phage display peptide library on human recombinant CD3ε protein as the target protein was carried out according to the manufacturer's protocol with modifications. Briefly, 50 μl of a 50% aqueous suspension of Pierce protein A/G magnetic beads was washed with 1 ml of TBST washing buffer (tris-buffered saline with 0.1% tween) on a magnetic separator and blocked in blocking buffer (0.1 M NaHCO3 (pH 8.6) with 0.5% (w/v) BSA) for 1 h at 4° C. on a rotator. Two picomoles of target protein was mixed with 10^11 pfu (plaque-forming unit) of the phage library in 200 μl of TBST buffer and incubated for 15 minutes at room temperature on a rotator and then incubated with pre-washed and pre-blocked magnetic beads for 15 minutes at room temperature on a rotator. After the microbeads were washed vigorously for 15 times with 1 ml TBST, the bound phage was eluted by 1 ml of glycine buffer (0.2 M Glycine-HCl (pH 2.2)+0.1% (w/v) BSA) and neutralized by addition of 150 μl of 1 M Tris-HCl (pH 9.1). […]
1.3 DNA Sequencing of Phage Clones: After the third and fifth round of biopanning, the ssDNA of selected phage clones was harvested following the standard protocol (NEB). […] The purified DNA of each clone was sequenced by Sanger sequencing (UAB Genomics Core Laboratories) using the −96 gIII primer and analyzed using Geneious Prime 2019 software suite.

Row | Substance | Kd [1] [µM] | binding of peptide tetramers to Jurkat cells [1] | binding of peptide tetramers to 2PK3 cells [2] | share of tested plaques occupied by the clone [3] [%]
1 | FWSSPQMGGGS [SEQ ID NO: 30]-PEG6-K-biotin [anti-CD3ε peptide 11 tetramer] | ~100 | incremental binding to the Jurkat cells in a dose-dependent manner | no specific attachment | 
2 | WSLGYTG [anti-CD3ε peptide 13] |  |  |  | 90
3 | WSLGYTGGGGS [SEQ ID NO: 31]-PEG6-K-biotin [anti-CD3ε peptide 13 tetramer] | ~100 | incremental binding to the Jurkat cells in a dose-dependent manner | no specific attachment | 
